The values that follow come from publication PMC6678630 (International Journal of Molecular Sciences, 2019).

The target in one assay is T1, human GIPR (Homo sapiens, UniProt P48546).
T1 construct: expressed in transfected cells; host or cells: HEK-293 (transient, with Cre-luc reporter)
T1 sequence (P48546 22-466): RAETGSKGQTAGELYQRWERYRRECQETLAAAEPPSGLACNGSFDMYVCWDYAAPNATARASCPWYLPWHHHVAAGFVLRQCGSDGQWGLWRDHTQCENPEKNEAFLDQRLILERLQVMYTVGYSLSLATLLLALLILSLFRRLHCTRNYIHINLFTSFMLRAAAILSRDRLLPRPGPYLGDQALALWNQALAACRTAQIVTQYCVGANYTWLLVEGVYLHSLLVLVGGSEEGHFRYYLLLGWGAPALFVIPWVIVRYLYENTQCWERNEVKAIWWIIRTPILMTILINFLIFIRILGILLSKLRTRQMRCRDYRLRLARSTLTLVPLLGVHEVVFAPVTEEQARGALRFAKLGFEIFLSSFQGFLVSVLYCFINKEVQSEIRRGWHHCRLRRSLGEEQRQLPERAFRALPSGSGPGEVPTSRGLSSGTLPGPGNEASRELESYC
As to the kind of experiment: CRE-Luc cAMP-responsive luciferase reporter assay, GIP receptor. Type of assay: cell-based. As for the experimental part: (§1) The start codon of SYFP2 was replaced by PCR with an XbaI site, and a NotI site was inserted behind the stop codon of SYFP2. The resulting fusion of receptor-SYFP2 was cloned in pcDNA3.
(§2) HEK-293 and Flip-In HEK-293 cells (Invitrogen) were cultured in Dulbecco’s modified Eagle’s media supplemented with 10% foetal calf serum, 100 U/mL penicillin and 100 µg/mL streptomycin. Cells were maintained at 37 °C in a humidified environment containing 5% CO2. HEK-293 cells were transiently transfected using Effectene (Qiagen, Hilden, Germany), following the manufacturer’s protocol. In order to generate stable cell lines Flip-In HEK-293 cells were transfected with the pcDNA5.FRT vector and pOG44 using Effectene. Stable isogenic clones were selected by the addition of hygromycin (100 µg/mL).
(§3) Twenty-four hours after transfection, the cells were seeded into white 96-well plates (Thermo Scientific, Roskilde, Denmark). Twenty-four hours later, the cells were incubated for 3 h in medium containing peptide ligand and then lysed. Luciferase activity was quantified using LucLite reagent (PerkinElmer Life and Analytic Sciences, Wellesley, MA, USA).
(§4) Dose-response curves represent the mean ± S.E.M from at least three independent experiments, each performed in triplicates. […] The dose-response data were fitted to a sigmoidal curve using nonlinear regression, and the EC50 values calculated with the aid of GraphPad 8.0 (GraphPad Dan Diego, CA, USA). The values in Table 1 represent the mean ± S.E.M calculated from the pEC50 (−logEC50) values from at least three independent experiments. Statistical analysis of significance was calculated with GraphPad 8.0 using a two˗tailed, unpaired Student’s t-test.
In general terms: A reporter such as luciferase makes a cellular process visible.

The target in assay [1] is T2, human glucagon receptor (GCGR) (Homo sapiens, UniProt P47871).
T2 construct: expressed in transfected cells; host or cells: HEK-293 (transient, with Cre-luc reporter)
T2 sequence (P47871 26-477): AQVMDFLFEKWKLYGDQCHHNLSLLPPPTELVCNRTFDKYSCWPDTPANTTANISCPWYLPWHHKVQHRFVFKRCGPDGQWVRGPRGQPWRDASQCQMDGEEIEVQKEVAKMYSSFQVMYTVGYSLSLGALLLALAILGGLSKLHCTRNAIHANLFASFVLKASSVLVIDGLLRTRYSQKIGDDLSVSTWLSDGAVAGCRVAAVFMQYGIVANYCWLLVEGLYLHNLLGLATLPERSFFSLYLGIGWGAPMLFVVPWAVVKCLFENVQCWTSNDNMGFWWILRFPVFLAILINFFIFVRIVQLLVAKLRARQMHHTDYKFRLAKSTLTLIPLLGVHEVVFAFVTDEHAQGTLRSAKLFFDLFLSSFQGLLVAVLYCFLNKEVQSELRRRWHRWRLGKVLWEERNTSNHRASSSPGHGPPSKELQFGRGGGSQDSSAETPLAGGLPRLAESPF
As to the kind of experiment: CRE-Luc cAMP-responsive luciferase reporter assay, glucagon receptor. Type of assay: cell-based. As for the experimental part: as §1, §2, §3, §4

The next assay deals with T3, human GLP-1R (Homo sapiens, UniProt P43220).
T3 construct: expressed in transfected cells; host or cells: HEK-293 (transient, with Cre-luc reporter)
T3 sequence (P43220 24-463): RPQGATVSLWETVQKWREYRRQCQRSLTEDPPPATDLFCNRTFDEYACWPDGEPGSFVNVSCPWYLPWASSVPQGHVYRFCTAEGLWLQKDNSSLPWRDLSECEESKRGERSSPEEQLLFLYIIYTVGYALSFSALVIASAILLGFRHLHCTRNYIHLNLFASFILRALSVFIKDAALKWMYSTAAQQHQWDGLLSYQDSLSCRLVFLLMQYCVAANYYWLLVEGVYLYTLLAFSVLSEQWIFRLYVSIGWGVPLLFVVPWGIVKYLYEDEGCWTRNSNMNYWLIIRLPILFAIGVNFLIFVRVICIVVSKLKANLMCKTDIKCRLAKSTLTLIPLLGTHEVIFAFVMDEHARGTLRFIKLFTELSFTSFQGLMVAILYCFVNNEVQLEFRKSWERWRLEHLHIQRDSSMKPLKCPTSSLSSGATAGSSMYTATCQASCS
As to the kind of experiment: CRE-Luc cAMP-responsive luciferase reporter assay, GLP-1 receptor. Type of assay: cell-based. The protocol:
as §1
HEK-293 and Flip-In HEK-293 cells (Invitrogen) were cultured in Dulbecco’s modified Eagle’s media supplemented with 10% foetal calf serum, 100 U/mL penicillin and 100 µg/mL streptomycin. Cells were maintained at 37 °C in a humidified environment containing 5% CO2. HEK-293 cells were transiently transfected using Effectene (Qiagen, Hilden, Germany), following the manufacturer’s protocol. […]
Twenty-four hours after transfection, the cells were seeded into white 96-well plates (Thermo Scientific, Roskilde, Denmark). […] Luciferase activity was quantified using LucLite reagent (PerkinElmer Life and Analytic Sciences, Wellesley, MA, USA).
as §4

The target of assay [2] is T4, human GLP-1R (GLP-1R-Nluc) (Homo sapiens, UniProt P43220).
T4 construct: expressed in transfected cells; host or cells: Flp-In HEK-293 stably expressing GLP-1R-NLuc (pcDNA5-FRT); NES-Venus-Gαs transient
T4 sequence (P43220 24-463): as above
As to the kind of experiment: BRET Gαs recruitment to GLP-1 receptor. The assay is classed as cell-based. Conditions: Gαs BRET (NES-Venus-Gαs), Flip-In HEK-293 cells stably expressing GLP-1R-Nluc, 15 min agonist; mean ± S.E.M., 4 independent experiments. As for the experimental part: as §2, §4
In general terms: Bioluminescence resonance energy transfer reports proximity on the nanometre scale.

The next assay deals with GIPR. Conditions: cited from earlier work. An excerpt: (§5) Several GLP-1R agonists (e.g., exenatide, liraglutide, and semaglutide) are currently used clinically to treat both T2DM and obesity. While they reduce mortality, improve glycemic control, reduce body weight and improve cardiovascular risk factors, the use of higher doses is often limited by adverse effects such as nausea and vomiting. There is therefore the potential to improve upon the current class of GLP-1R agonists. Targeting GIPR to treat T2DM and obesity has a somewhat contradictory history. Unlike GLP-1, pharmacological doses of exogenous GIP were not found to be ins ...

Another assay concerns rodent models. Particulars: ref [26],[27]; cited from earlier work.
Text: as §5

Take `CC[C@H](C)[C@H](NC(=O)[C@H](Cc1ccccc1)NC(=O)[C@H](CCC(=O)O)NC(=O)[C@H](CCCCN)NC(=O)[C@H](C)NC(=O)[C@H](C)NC(=O)[C@H](CCC(N)=O)NC(=O)CNC(=O)[C@H](CCC(=O)O)NC(=O)[C@H](CC(C)C)NC(=O)[C@H](Cc1ccc(O)cc1)NC(=O)[C@H](CO)NC(=O)[C@H](CO)NC(=O)[C@@H](NC(=O)[C@H](CC(=O)O)NC(=O)[C@H](CO)NC(=O)[C@@H](NC(=O)[C@H](Cc1ccccc1)NC(=O)[C@@H](NC(=O)CNC(=O)[C@H](CCC(=O)O)NC(=O)[C@H](C)NC(=O)[C@@H](N)Cc1c[nH]cn1)[C@@H](C)O)[C@@H](C)O)C(C)C)C(=O)N[C@@H](C)C(=O)N[C@@H](Cc1c[nH]c2ccccc12)C(=O)N[C@@H](CC(C)C)C(=O)N[C@H](C(=O)N[C@@H](CCCCN)C(=O)NCC(=O)N[C@@H](CCCNC(=N)N)C(=O)NCC(=O)O)C(C)C` [GLP-1, Glucagon-like peptide-1]: the “activity at GIP receptor, in words” value on human GIPR (CRE-Luc, HEK-293 cells) is “Neither glucagon nor GLP-1 displayed any detectable activity”. Besides, in assay [1] (CRE-Luc, HEK-293 cells, concentrations up to 1 µM), the “activity at glucagon receptor, in words” value is “could not be detected”.
For `CC[C@H](C)[C@H](NC(=O)[C@H](CO)NC(=O)[C@H](Cc1ccc(O)cc1)NC(=O)[C@H](CC(=O)O)NC(=O)[C@H](CO)NC(=O)[C@@H](NC(=O)[C@H](Cc1ccccc1)NC(=O)[C@@H](NC(=O)CNC(=O)[C@H](CCC(=O)O)NC(=O)C(C)(C)NC(=O)[C@@H](N)Cc1ccc(O)cc1)[C@@H](C)O)[C@@H](C)O)C(=O)N[C@@H](Cc1ccc(O)cc1)C(=O)N[C@@H](CC(C)C)C(=O)N[C@@H](CC(=O)O)C(=O)N[C@@H](CCCCN)C(=O)N[C@@H](CCC(N)=O)C(=O)N[C@@H](C)C(=O)N[C@@H](C)C(=O)NC(C)(C)C(=O)N[C@@H](CCC(=O)O)C(=O)N[C@@H](Cc1ccccc1)C(=O)N[C@H](C(=O)N[C@@H](CC(N)=O)C(=O)N[C@@H](Cc1c[nH]c2ccccc12)C(=O)N[C@@H](CC(C)C)C(=O)N[C@@H](CC(C)C)C(=O)N[C@@H](C)C(=O)NCC(=O)NCC(=O)N1CCC[C@H]1C(=O)N[C@@H](CO)C(=O)N[C@@H](CO)C(=O)NCC(=O)N[C@@H](C)C(=O)N1CCC[C@H]1C(=O)N1CCC[C@H]1C(=O)N1CCC[C@H]1C(=O)N[C@@H](CO)C(=O)N[C@@H](CCCCN)C(N)=O)C(C)C` [P18], the EC50 was 0.2 nM at human GLP-1R; 15.8 nM on human GIPR (−logEC50/M, CRE-Luc in transiently transfected HEK-293 cells, 3 h incubation, mean ± S.E.M., at least 3 independent experiments in triplicate, ND = no detectable activity at 1 µM, P18 p < 0.05 vs GIP, read-out: pEC50, GIP Receptor (converted)); 12600 nM in assay [1]; 39.8 nM in assay [2]. Moreover, on human GLP-1R (maximum luciferase activity as a percentage of GLP-1, HEK-293 cells, 3 h incubation, mean ± S.E.M., at least 3 independent experiments, ND = no detectable activity at 1 µM, glucagon p < 0.01 vs GLP-1), the “Emax (% GLP-1), GLP-1 Receptor” value is recorded as 106 ± 10.7 % GLP-1. Moreover, the “Emax (% GIP), GIP Receptor” value on human GIPR (maximum luciferase activity as a percentage of GIP, HEK-293 cells, 3 h incubation, mean ± S.E.M., at least 3 independent experiments, ND = no detectable activity at 1 µM) stood at 94.4 ± 4.09 % GIP. In addition, the “Emax (% Glucagon), Glucagon Receptor” value in assay [1] (maximum luciferase activity as a percentage of glucagon, HEK-293 cells, 3 h incubation, mean ± S.E.M., at least 3 independent experiments, ND = no detectable activity at 1 µM, P18 p < 0.0001 vs glucagon) came out at 22.6 ± 1.96 d % Glucagon.
For “Pro3GIP: derivative of GIP with a glutamic acid to proline substitution at position three (YAPGTFISDYSIAMDKIHQQDFVNWLLAQKGKKNDWKHNITQ; Gastric inhibitory polypeptide; UniProt P09681 52-93, looked up, variant E3P)”, the “initially reported activity at GIPR, in words” value in the assay on GIPR (initial report, later contradicted, ref [26],[27]) is on record as “GIPR antagonist”. The “activity at GIPR, in words” value with GIPR (ref [28],[29]) is reported as “low potency GIPR agonist”. In addition, the “protection against diabetes and obesity” value with rodent models is “protective against diabetes and obesity in rodent models”.
